In publication PMC7883289, “Synthesis of Paeonol-Ozagrel Conjugate: Structure Characterization and In Vivo Anti-Ischemic Stroke potential” (Frontiers in Pharmacology, 2021):

Legend:
PC12 cells = assay: Cell viability, CCK8 method; type: cell-based, Rat; conditions: 24 h, CCK8, tested 37.5 to 1,200.0 μM
Protocol: Rat PC12 pheochromocytoma cells were obtained from the Cell Resource Center, Peking Union Medical College. PC12 cells were grown as monolayers in tissue culture flasks at 37°C under a humidified, 5% CO2 atmosphere in the high–glucose Dulbecco’s Modified Eagle Medium (DMEM) medium.
The CCK8 (MedChemExpress, United States) method was used to estimate the cytotoxic effects of POC. Before treatment, the cells were seeded onto 96-well culture plates at an appropriate density according to the experimental protocol. After 24 h, the medium was replaced with fresh medium containing varying concentrations (37.5, 75.0, 150.0, 300.0, 600.0, 1,200.0 μM) from the POC serial dilutions. And PC12 was allowed to grow for another 24 h. After incubation, the cell viability was evaluated using the CCK8 assay. The absorbance was read at 450 nm on a microplate reader. These cell viability experiments were made in triplicate.

[1] = test system: middle cerebral artery occlusion (MCAO) rats; assay: HE staining, histopathologic changes in brain cortex of MCAO rats; type: in vivo; conditions: 24 h after treatment, POC 4.5 mg/kg iv, compared with the model group, n = 3
Protocol: Male Sprague Dawley (SD) rats weighing among 220 g–230 g (Anhui Medicine University, Hefei, China; certificate number: SCXK20190,003) were housed under ad libitum access to food and water with a standardized light-dark cycle condition (25 ± 2°C, 12–hour light/dark cycle). All the experimental protocols were performed in accordance with the Institutional Animal Care and Use Committee of Anhui University of Chinese Medicine (Animal ethics number: AHUCM–rats–2019001). We used the minimal number of study animals (n = 6 rats in each group for different experiments). The rats were fastened upon the operating table in a supine position after being anesthetized with 2% pelltobarbitalum natricum (50 mg/kg). After disinfection of the skin within close proximity of the operative region, the right common carotid artery (CCA), external carotid artery (ECA) and internal carotid artery (ICA) were exposed with blunt dissection. The CCA was temporarily ligated and the ECA were permanently ligated ([Liu et al., 2016]). A nylon monofilament surgical thread was introduced into the ICA to block the MCA when the blunted distal end met resistance. After 2 h of occlusion, reperfusion was accomplished to restore blood supply to the MCA area by removing the filament ([Li et al., 2009]; [Zhai et al., 2017]). […] Rats were split randomly into five groups, including the sham, model, paeonol, OS and POC group. […]

[2] = Solubility of POC in solvents (described in words); type: physicochemical
[3] = Partition coefficient, shake-flask method (n-octanol / aqueous phase); type: physicochemical; conditions: n-octanol / aqueous phase buffered with phosphate pH 7.4, shake-flask, HPLC
Protocol: The partition coefficient of POC was established by the shake-flask method between n–octanol and an aqueous phase ([Redasani and Bari, 2012]). The aqueous phase buffered with phosphate (pH 7.4, 100 ml) and n–octanol (100 ml) was mixed well, placed in a shaking air bath for 72 h, and then left to equilibrate until the two saturated phases completely separated. POC (5 mg) was dissolved in 50 ml of saturated n-octanol and diluted with the saturated aqueous equally. The mixture was placed in an oscillator and shaken for 1 h until the two phases separated. Concentration was analyzed by HPLC method and then the partition coefficient was calculated as the ratio of the concentration of POC in n–octanol to aqueous. All experiments were made in triplicate.

SMILES: COc1ccc(C(C)=O)c(OC(=O)C=Cc2ccc(Cn3ccnc3)cc2)c1 [POC, paeonol-ozagrel conjugate]
- concentration with no viability loss / no toxic effect (PC12 cells): less than 75 μM
- histopathologic changes in brain cortex (HE) [1]: only marginal neuronal cells damage
- solubility in ethyl acetate ([2]; ethyl acetate): slightly soluble
- solubility in methanol and ethanol ([2]; methanol and ethanol): easily soluble
- solubility in water ([2]; water): almost insoluble or insoluble
- logD [3]: 0.425
